Laboratory results published in patent US9232799B2, “N-[(het)arylethyl)] pyrazole(thio)carboxamides and their heterosubstituted analogues” (BAYER INTELLECTUAL PROPERTY GMBH, priority 2010, dated 2016).

How the values were obtained:
[1] = logP by HPLC on reversed-phase column (C 18), EEC Directive 79/831 Annex V.A8; type: physicochemical
Method: In table 1, the logP values were determined in accordance with EEC Directive 79/831 Annex V.A8 by HPLC (High Performance Liquid Chromatography) on a reversed-phase column (C 18), using the method described below: Temperature: 40° C.; […]

Alternaria solani = test: In vivo preventive test on Alternaria solani (tomato); settings: 500 ppm of active ingredient, evaluated 7 days after inoculation
Excerpt: One day after this treatment, the plants are inoculated with an aqueous spore suspension of Alternaria solani.

Pyrenophora teres = test: In vivo preventive test on Pyrenophora teres (barley); settings: 500 ppm of active ingredient, evaluated 7-9 days after inoculation
Excerpt: One day after this treatment, the plants are inoculated with an aqueous spore suspension of Pyrenophora teres.

Leptosphaeria nodorum = test: In vivo preventive test on Leptosphaeria nodorum (wheat); settings: 500 ppm of active ingredient, evaluated 7-9 days after inoculation
Excerpt: One day after this treatment, the plants are inoculated with an aqueous spore suspension of Leptosphaeria nodorum.

aflatoxines production = test: microbe, parasite or virus in culture; type: cell-based, Aspergillus parasiticus; settings: 50 μM
Fusarium graminearum = test: microbe, parasite or virus in culture; type: cell-based; settings: 50 μM
Sphaerotheca fuliginea = test: In vivo preventive test on Sphaerotheca fuliginea (cucumber); settings: 500 ppm of active ingredient, evaluated 7 days after inoculation
Excerpt: One day after this treatment, the plants are inoculated with an aqueous spore suspension of Sphaerotheca fuliginea.

SMILES	logP [1]	Efficacy (Alternaria solani)	Efficacy (Pyrenophora teres)	Efficacy (Leptosphaeria nodorum)	% Inhibition of Aflatoxin at 50 μM (aflatoxines production)	% Inhibition of fungal growth at 50 μM (Fusarium graminearum)	Efficacy (Sphaerotheca fuliginea)
CN(CCc1cc(Cl)ccc1Cl)C(=S)c1c(C(F)F)nn(C)c1F [Example 96]	3.87	95%	100%	90%	100%	82%	
CC(Cc1ccccc1F)N(C(=O)c1c(C(F)F)nn(C)c1F)C1CC1 (stereo not drawn) [Example 19]	3.37	100%	100%	70%	100%	100%	
Cn1nc(C(F)F)c(C(=O)N(C2CC2)C2CCCCC2(C)c2ccccc2)c1F (mixture of isomers) [Example 218]		70%	100%	95%	100%	99%	94%
Cn1nc(C(F)F)c(C(=S)NCCc2ccc(Cl)cc2Cl)c1F [Example 71]	3.99	94%	100%				85%
CC(Cc1ccccc1F)N(C(=S)c1c(C(F)F)nn(C)c1F)C1CC1 (stereo not drawn) [Example 21]	4.01	95%	100%				100%
CC(CN(C(=S)c1c(C(F)F)nn(C)c1F)C1CC1)c1ccccc1 (stereo not drawn) [Example 15]	3.92	90%	100%	100%	100%	83%	100%
CC(Cc1c(F)cccc1F)N(C(=S)c1c(C(F)F)nn(C)c1F)C1CC1 (stereo not drawn) [Example 28]	3.94	90%	100%	95%			100%
Cn1nc(C(F)F)c(C(=O)N(C2CC2)C2CCCCC2c2ccccc2Cl)c1F (stereo not drawn) [Example 216]	4.49	71%	95%		100%	84%	100%
Cn1nc(C(F)F)c(C(=O)N(C[Si](C)(C)c2ccsc2)C2CC2)c1F [Example 248]	3.55	94%	100%	94%	100%	100%	
CCC(CNC(=O)c1c(C(F)F)nn(C)c1Cl)c1ncc(C(F)(F)F)cc1Cl (stereo not drawn) [Example 193]	3.73	100%	100%		100%	91%	83%
Cn1nc(C(F)F)c(C(=O)NC(C)(C)Cc2ccc(Oc3ccccc3)cc2)c1F [Example 150]	4.19	95%	78%				100%
COC(c1ccc(Cl)cc1Cl)C1(NC(=O)c2c(C(F)F)nn(C)c2F)CC1 (stereo not drawn) [Example 79]	3.46	100%	100%	80%	100%	98%	100%
Cn1nc(C(F)F)c(C(=O)NC2CC2c2cccc(F)c2)c1F (stereo not drawn) [Example 222]	2.59		100%	90%	99%	81%	
Cn1nc(C(F)F)c(C(=O)NC2CC2c2ccccc2C(F)(F)F)c1F (stereo not drawn) [Example 225]	3.00	95%	100%		97%	83%	80%
COC(c1ccc(Cl)cc1Cl)C1(NC(=O)c2c(C(F)F)nn(C)c2Cl)CC1 (stereo not drawn) [Example 78]	3.70	100%	100%	80%	100%	100%	100%
CC(Cc1ccccc1Cl)NC(=O)c1c(C(F)F)nn(C)c1F (stereo not drawn) [Example 31]	2.94	100%	100%	70%	100%	100%	96%
CC(CN(C(=S)c1c(C(F)F)nn(C)c1Cl)C1CC1)c1ccccc1 (stereo not drawn) [Example 16]	4.11	95%	100%	95%			
Cn1nc(C(F)F)c(C(=O)NC2CCCCC2c2ccccc2)c1Cl (stereo not drawn) [Example 215]	3.51	78%	100%				93%
CC(Cc1ccc(Cl)cc1Cl)NC(=O)c1c(C(F)F)nn(C)c1Cl (stereo not drawn) [Example 68]	3.67	95%	100%		100%	100%	99%
Cn1nc(C(F)F)c(C(=O)NC(C)(C)Cc2ccc(Oc3ccccc3)cc2)c1Cl [Example 153]	4.39	95%	80%				93%
CC(Cc1ccc(Oc2ccccc2)cc1)NC(=S)c1c(C(F)F)nn(C)c1F (stereo not drawn) [Example 156]	4.29	89%	100%				93%
Cn1nc(C(F)F)c(C(=O)NCC(C)(C)c2ccc(Cl)cc2Cl)c1F [Example 87]	3.81	95%	94%	70%	100%	94%	
CC(Cc1ccccc1Cl)NC(=S)c1c(C(F)F)nn(C)c1F (stereo not drawn) [Example 37]	3.61	94%	100%		94%	78%	98%
CC(Cc1ccccc1Cl)NC(=S)c1c(C(F)F)nn(C)c1Cl (stereo not drawn) [Example 38]	3.72	89%	100%				85%
Cc1scc(CCNC(=O)c2c(C(F)F)nn(C)c2F)c1C [Example 167]	2.82	100%	100%		100%	100%	90%
CC(Cc1ccc(Cl)cc1Cl)NC(=S)c1c(C(F)F)nn(C)c1Cl (stereo not drawn) [Example 69]	4.29	94%			100%	86%	95%
Cn1nc(C(F)F)c(C(=O)NCC(C)(C)c2cc(Cl)ccc2Cl)c1Cl [Example 101]	3.89	100%	70%		100%	86%	83%
